From ChEMBL document CHEMBL5604062, “ASAP - ZIKV NS2B-NS3 protease fluorescence dose response” (2024) come the findings set out here.

Bounds are passed on as bounds.

Broadly, the IC50 is the concentration that inhibits the measured activity by half.

The target of this experiment is Nonstructural protein 3 (Zika virus, UniProt A0A024AXB9). The experiment is described as follows: Functional biochemical assay to identify treatments for viral infectious disease that targets Zika NS2B-NS3 protease. Utilizing a direct enzyme activity measurement method, reading the fluorescence intensity is used to characterize the relative potency of inhibitors as IC50. Details: species or system PRVABC59.
Sequence of Nonstructural protein 3 (A0A024AXB9 whole entry): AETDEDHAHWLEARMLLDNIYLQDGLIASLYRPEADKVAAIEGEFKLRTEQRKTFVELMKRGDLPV
`NCc1cccc(NC(=O)[C@@H](NC(=O)OCc2ccccc2)C2CCN(S(=O)(=O)C3CCCC3)CC2)c1`: the IC50 was over 99.5 µM.
In the case of `NCc1cccc(NC(=O)c2cc(Cl)cc(-n3cccc3)c2)c1` it was 2.7 µM; in that of `NCc1cccc(NC(=O)[C@@H](NC(=O)OCc2ccccc2)C2CCN(C(=O)C3CC3)CC2)c1`, over 99.5 µM.
As for `Cn1ccc(COc2ccc([C@@H](NC(=O)OCc3ccccc3)C(=O)Nc3cccc(CN)c3)cc2)n1`, the figure is over 99.5 µM; as for `Cn1nc2c(c1NC(=O)c1cc(Cl)cc(NC(=O)OCc3ccccc3)c1)CCNC2`, over 99.5 µM; as for `C[C@@H]1CNC[C@H]1c1ccc(NC(=O)c2ccc3c(c2)SCCN3)cc1`, over 99.5 µM.
As for `NCc1cccc(NC(=O)c2ccc(F)c(NC(=O)OCc3ccccc3)c2F)c1`, the IC50 is over 99.5 µM.
As for `N#Cc1ccc(N2CCN(Cc3c[nH]c4ccccc34)CC2)cc1`, the figure is 86.2 µM; as for `NCc1cccc(NC(=O)[C@@H](NC(=O)OCc2ccccc2)C2CCN(Cc3cccnc3)CC2)c1`, over 99.5 µM; as for `c1ccc(-c2[nH]c3ccccc3c2CN2CCC(c3cscn3)CC2)cc1`, 34.4 µM.
As for `NCc1cccc(NC(=O)[C@@H](NC(=O)OCc2ccccc2)C2CCN(C(=O)c3cscn3)CC2)c1`, the figure is over 99.5 µM; as for `NCC12CC(NC(=O)c3cc(Cl)cc(NC(=O)OCc4ccccc4)c3)(CCO1)C2`, over 99.5 µM; as for `COc1c(Cl)cc(Cl)cc1C(=O)Nc1cccc(CN)c1`, 13.9 µM.
`O=C(Cn1ccnc(N2CC[C@H](CO)C2)c1=O)NCc1ccsc1` showed an IC50 of over 99.5 µM.
With `NS(=O)(=O)c1ccccc1N1CCN(Cc2c[nH]c3ccccc23)CC1`, the IC50 is over 99.5 µM.
As for `NCc1cccc(NC(=O)[C@@H](NC(=O)OCc2ccccc2)c2ccc(OCc3ccccn3)cc2)c1`, the figure is over 99.5 µM; as for `C=CC[C@]1(NC(=O)c2cc(Cl)cc(NC(=O)OCc3ccccc3)c2)CCNC1`, over 99.5 µM.
In the case of `NCc1cccc(NS(=O)(=O)c2cc(Cl)cc(NC(=O)OCc3ccccc3)c2)c1`, the 50% inhibitory concentration (IC50) is over 99.5 µM.
In the case of `O=C(Nc1cc(Cl)cc(C(=O)NC[C@@]23CN[C@H](CCO2)C3)c1)OCc1ccccc1`, the IC50 was over 99.5 µM.
As to `NCCCc1ccc(F)c(NC(=O)c2cc(Cl)cc(NC(=O)OCc3ccccc3)c2)c1`, the half-inhibitory concentration (IC50) was 6.27 µM.
In turn, `CC(C)OC(=O)Nc1cc(Cl)cc(C(=O)Nc2cccc(CN)c2)c1` came in with an IC50 of 2.46 µM.
`O=C(Nc1cc(Cl)cc(C(=O)NC[C@@H]2CNCCC2(F)F)c1)OCc1ccccc1` came in with an IC50 of over 99.5 µM.
In turn, `NC[C@H]1C[C@@H](CNC(=O)c2cc(Cl)cc(NC(=O)OCc3ccccc3)c2)CCO1` registered an IC50 of over 99.5 µM.
For `c1ccc(N2CCN(Cc3c[nH]c4ccccc34)CC2)nc1`, the IC50 was over 99.5 µM.
In the case of `NCc1cccc(NC(=O)[C@@H](NC(=O)OCc2ccccc2)C2CCN(S(=O)(=O)Cc3cscn3)CC2)c1` it was over 99.5 µM.
Compound `CCc1[nH]c2ccccc2c1CN1CCC(c2cscn2)CC1` displayed an IC50 of 21 µM.
As for `O=C(Nc1cc(Cl)cc(C(=O)NC[C@H]2CC3(CNC3)CO2)c1)OCc1ccccc1`, the IC50 was determined as 46.1 µM.
In the case of `C[C@@]1(CNC(=O)c2cc(Cl)cc(NC(=O)OCc3ccccc3)c2)CNCCOC1` it was over 99.5 µM; in that of `NCc1ccc(CNC(=O)c2cc(Cl)cc(NC(=O)OCc3ccccc3)c2)c(F)c1`, 32.9 µM.
`O=C(Cn1ccnc(N2CC[C@H](CO)C2)c1=O)NCc1cccs1` registered an IC50 of over 99.5 µM.
Compound `O=C(Nc1cc(Cl)cc(C(=O)NC[C@@]23CC[C@H](CNC2)C3)c1)OCc1ccccc1` yielded an IC50 of over 99.5 µM.
`NC[C@H]1C[C@](F)(CNC(=O)c2cc(Cl)cc(NC(=O)OCc3ccccc3)c2)C1` returned an IC50 of 67 µM.
`NCc1cccc(NC(=O)[C@@H](NC(=O)OCc2ccccc2)C2CCN(S(=O)(=O)[C@H]3CCOC3)CC2)c1` displayed an IC50 of over 99.5 µM.
In the case of `CC(=O)Nc1cc(Cl)cc(C(=O)Nc2cccc(CN)c2)c1` it was 3.52 µM; in that of `NC[C@]12CC[C@](NC(=O)c3cc(Cl)cc(NC(=O)OCc4ccccc4)c3)(CO1)C2`, 49.4 µM; in that of `Cc1cccc(CNc2ccc(Cl)cc2C(=O)Nc2cccc(CN)c2)n1`, over 99.5 µM.
`NCc1cccc(NC(=O)[C@@H](NC(=O)OCc2ccccc2)C2CCN(Cc3ccncc3)CC2)c1` yielded an IC50 of over 99.5 µM.
For the compound `NCc1cccc(NC(=O)[C@@H](NC(=O)OCc2ccccc2)C2CCN(S(=O)(=O)Cc3ncon3)CC2)c1`, the IC50 was over 99.5 µM.
Regarding `CNCc1cccc(NC(=O)c2cc(Cl)cc(NC(=O)OCc3ccccc3)c2)c1`, the IC50 is 19.6 µM.
`NCc1cccc(NC(=O)[C@@H](NC(=O)OCc2ccccc2)C2CCN(C3CCOCC3)CC2)c1` displayed an IC50 of over 99.5 µM.
In the case of `Clc1ccc2c(CN3CCC(c4c[nH]c5ncccc45)CC3)c[nH]c2c1` it was 24.9 µM; in that of `O=C(Nc1cc(Cl)cc(C(=O)NC[C@H]2CCNC3(CC3)C2)c1)OCc1ccccc1`, over 99.5 µM.
In turn, `Cc1ncc(COc2ccc([C@@H](NC(=O)OCc3ccccc3)C(=O)Nc3cccc(CN)c3)cc2)o1` came in with a half-maximal inhibitory concentration (IC50) of over 99.5 µM.
As to `O=C(Nc1cc(Cl)cc(C(=O)N[C@@]23CCCCC[C@@H]2NCC3)c1)OCc1ccccc1`, the IC50 was determined as 76.1 µM.
As for `N[C@H]1CC[C@H](NC(=O)c2cc(Cl)cc(NC(=O)OCc3ccccc3)c2)C1`, the figure is 69.7 µM; as for `COCC(=O)N1CCC([C@@H](NC(=O)OCc2ccccc2)C(=O)Nc2cccc(CN)c2)CC1`, over 99.5 µM; as for `Cc1nccn1-c1ccc(Cl)cc1C(=O)Nc1cccc(CN)c1`, over 99.5 µM.
`CC(C)S(=O)(=O)N1CCC([C@@H](NC(=O)OCc2ccccc2)C(=O)Nc2cccc(CN)c2)CC1`: the IC50 was over 99.5 µM.
`CS(=O)(=O)N1CCC([C@@H](NC(=O)OCc2ccccc2)C(=O)Nc2cccc(CN)c2)CC1` showed an IC50 of over 99.5 µM.
In turn, `O=C(Nc1cc(Cl)cc(C(=O)Nc2ccc3c(c2)CNCCO3)c1)OCc1ccccc1` had an IC50 of 7.69 µM.
As for `O=C(Nc1cc(Cl)cc(C(=O)NC[C@H]2CNC3(CC3)CO2)c1)OCc1ccccc1`, the figure is over 99.5 µM.
In turn, `O=C(Nc1cc(Cl)cc(C(=O)NC2([C@H]3CCNC3)CC2)c1)OCc1ccccc1` gave an IC50 of over 99.5 µM.
The compound `N[C@@H]1CC[C@H](CCNC(=O)c2cc(Cl)cc(NC(=O)OCc3ccccc3)c2)C1` came in with an IC50 of 61 µM.
As for `NCc1cccc(NC(=O)[C@@H](NC(=O)OCc2ccccc2)c2ccc(OCCN3CCCCC3)cc2)c1`, the figure is over 99.5 µM; as for `CCc1ccc([C@@H](CC(=O)Nc2cccc(CN)c2)NC(=O)OCc2ccccc2)cc1Br`, 12.1 µM.
`NCc1cccc(NC(=O)[C@@H](NC(=O)OCc2ccccc2)c2ccc(OCc3cnccn3)cc2)c1` gave an IC50 of over 99.5 µM.
Consider `NCc1cc(F)cc(NC(=O)c2cc(Cl)cc(NC(=O)OCc3ccccc3)c2)c1`, for which half-maximal inhibition (IC50) required 5.86 µM.
With `Cn1nc2c(c1NC(=O)c1cc(Cl)cc(NC(=O)OCc3ccccc3)c1)CNCC2`, half-maximal inhibition (IC50) was put at 21.9 µM.
As for `NC[C@]1(F)C[C@@H](NC(=O)c2cc(Cl)cc(NC(=O)OCc3ccccc3)c2)C1`, the figure is 68.6 µM; as for `NS(=O)(=O)c1cccc(N2CCN(Cc3c[nH]c4ccccc34)CC2)c1`, over 99.5 µM; as for `Cc1csc(N2CCN(Cc3c[nH]c4ccccc34)CC2)n1`, over 99.5 µM.
In the case of `C[C@@H](N)c1cccc(NC(=O)c2cc(Cl)cc(NC(=O)OCc3ccccc3)c2)c1` it was 22.7 µM.
